This note sets out measurements from ChEMBL document CHEMBL3856198, “Synthesis of novel 17-(4'-formyl)pyrazolylandrosta-5,16-dienes and their derivatives as potent 17α-hydroxylase/C17,20-lyase inhibitors or antiproliferative agents depending on the substitution pattern of the heteroring” (Eur J Med Chem, 2016).

The structures appear in SMILES notation.

Format in all cases: functional
A short description of experiment [1]: Growth inhibition of human MCF7 cells at 10 uM after 72 hrs by MTT assay. Conditions: MCF7, 72 h, read-out: GI. Background: Tetrazolium assays rely on reduction of a dye to a coloured formazan, in cell work by metabolically active cells.
The nature of experiment [2]: Growth inhibition of human MDA-MB-361 cells at 10 uM after 72 hrs by MTT assay. Conditions: MDA-MB-361, 72 h, read-out: GI.
Experiment [3] can be described thus: Growth inhibition of human MCF7 cells at 30 uM after 72 hrs by MTT assay. Conditions: MCF7, 72 h, read-out: GI.
Experiment [4] can be described thus: Growth inhibition of human MDA-MB-231 cells at 10 uM after 72 hrs by MTT assay. Conditions: MDA-MB-231, 72 h, read-out: GI.
Experiment [5] can be described thus: Growth inhibition of human MDA-MB-231 cells at 30 uM after 72 hrs by MTT assay. Conditions: MDA-MB-231, 72 h, read-out: GI.
Experiment [6] can be described thus: Growth inhibition of human T47D cells at 30 uM after 72 hrs by MTT assay. Conditions: read-out: GI.
A short description of experiment [7]: Growth inhibition of human MDA-MB-361 cells at 30 uM after 72 hrs by MTT assay. Conditions: MDA-MB-361, 72 h, read-out: GI.
Experiment [8] is described as follows: Growth inhibition of human T47D cells at 10 uM after 72 hrs by MTT assay. Conditions: read-out: GI.

With `CC(=O)O[C@H]1CC[C@@]2(C)C(=CC[C@@H]3[C@@H]2CC[C@]2(C)C(c4n[nH]cc4C=O)=CC[C@@H]32)C1`, the inhibition of growth at 10 µM in experiment [1], in experiment [2], in experiment [4] and in experiment [8] was under 20% each time. Besides, the inhibition of growth at 30 µM in experiment [3] is 83.5%; in experiment [5], under 20%; in experiment [6], 63.3%; in experiment [7], 64.2%.
Turning to `COc1ccc(-n2cc(CO)c(C3=CC[C@H]4[C@@H]5CC=C6C[C@@H](O)CC[C@]6(C)[C@H]5CC[C@]34C)n2)cc1`, the inhibition of growth at 10 µM in experiment [1] worked out at 51.8%; in experiment [2], 64.7%; in experiment [4], 69.3%; in experiment [8] it was 62.2%. The inhibition of growth at 30 µM in experiment [3] stood at 75.5%; in experiment [5] it was 92.9%; in experiment [6], 79.6%; in experiment [7], 86.7%.
As to `C[C@]12CC[C@H](O)CC1=CC[C@@H]1[C@@H]2CC[C@]2(C)C(c3nn(-c4ccc([N+](=O)[O-])cc4)cc3C=O)=CC[C@@H]12`, the inhibition of growth at 10 µM in experiment [1] came out at 64.8%; in experiment [2], 63.9%; in experiment [4] it was 51.8%; in experiment [8], 72.5%. Besides, the inhibition of growth at 30 µM in experiment [3] worked out at 75.1%; in experiment [5], 77%; in experiment [6], 79.6%; in experiment [7] it was 80%.
On to `COc1ccc(-n2cc(C=O)c(C3=CC[C@H]4[C@@H]5CC=C6C[C@@H](OC(C)=O)CC[C@]6(C)[C@H]5CC[C@]34C)n2)cc1`, for which the inhibition of growth at 10 µM was 43.8% in experiment [1], 32.8% in experiment [2], under 20% in experiment [4] and 33.9% in experiment [8]. Also, the inhibition of growth at 30 µM in experiment [3] was 77.7%; in experiment [5], 54.4%; in experiment [6], 69.1%; in experiment [7], 66.7%.
In the case of `CC(=O)O[C@H]1CC[C@@]2(C)C(=CC[C@@H]3[C@@H]2CC[C@]2(C)C(c4nn(-c5ccc(C#N)cc5)cc4C=O)=CC[C@@H]32)C1`, the inhibition of growth at 10 µM was determined as 62.2% in experiment [1], 58.9% in experiment [2], 43% in experiment [4] and 60.4% in experiment [8]. Besides, the inhibition of growth at 30 µM in experiment [3] turned out to be 85.3%; in experiment [5], 84.5%; in experiment [6], 83.6%; in experiment [7], 80.4%.
On to `C[C@]12CC[C@H](O)CC1=CC[C@@H]1[C@@H]2CC[C@]2(C)C(c3nn(-c4ccc(Br)cc4)cc3C=O)=CC[C@@H]12`, for which the inhibition of growth at 10 µM in experiment [1] is 22.2%; in experiment [2], 48.1%; in experiment [4] it was under 20%; in experiment [8], 36.2%. The inhibition of growth at 30 µM in experiment [3] was determined as 61%; in experiment [5], 55.8%; in experiment [6], 70.7%; in experiment [7] it was 60.4%.
In the case of `C[C@]12CC[C@H](O)CC1=CC[C@@H]1[C@@H]2CC[C@]2(C)C(c3nn(-c4ccc(Cl)cc4)cc3C=O)=CC[C@@H]12`, the inhibition of growth at 10 µM in experiment [1] was 32.1%; in experiment [2], 48.4%; in experiment [4] it was under 20%; in experiment [8] it was 43.6%. The inhibition of growth at 30 µM was 55.7% in experiment [3], 41.1% in experiment [5], 68.4% in experiment [6] and 60.5% in experiment [7].
`C[C@]12CC[C@H](O)CC1=CC[C@@H]1[C@@H]2CC[C@]2(C)C(c3nn(-c4ccc(C#N)cc4)cc3C=O)=CC[C@@H]12`: the inhibition of growth at 10 µM in experiment [1] came to 64.4%; in experiment [2], 60.8%; in experiment [4], 49.1%; in experiment [8] it was 66.9%. Further, the inhibition of growth at 30 µM in experiment [3] was determined as 80.2%; in experiment [5] it was 93.1%; in experiment [6], 86.4%; in experiment [7] it was 74.3%.
`CC(=O)O[C@H]1CC[C@@]2(C)C(=CC[C@@H]3[C@@H]2CC[C@]2(C)C(c4nn(-c5ccc(Br)cc5)cc4C=O)=CC[C@@H]32)C1`: the inhibition of growth at 10 µM in experiment [1] came out at 41.2%; in experiment [2], 33.8%; in experiment [4], 21.7%; in experiment [8] it was 51.4%. Moreover, the inhibition of growth at 30 µM in experiment [3] stood at 60.6%; in experiment [5], 51.9%; in experiment [6], 63.6%; in experiment [7] it was 55.1%.
On to `CC(=O)O[C@H]1CC[C@@]2(C)C(=CC[C@@H]3[C@@H]2CC[C@]2(C)C(c4nn(-c5ccc(C)cc5)cc4C=O)=CC[C@@H]32)C1`, for which the inhibition of growth at 10 µM in experiment [1] was 24.6%; in experiment [2], under 20%; in experiment [4] it was under 20%; in experiment [8], 37.2%. Also, the inhibition of growth at 30 µM in experiment [3] is 44.4%; in experiment [5], 27.2%; in experiment [6], 50.8%; in experiment [7], 34.9%.
As to `Cc1ccc(-n2cc(C=O)c(C3=CC[C@H]4[C@@H]5CC=C6C[C@@H](O)CC[C@]6(C)[C@H]5CC[C@]34C)n2)cc1`, the inhibition of growth at 10 µM in experiment [1] amounted to 47.8%; in experiment [2], 57.3%; in experiment [4], 58.9%; in experiment [8] it was 47.2%. Moreover, the inhibition of growth at 30 µM in experiment [3] was 72.6%; in experiment [5], 76.9%; in experiment [6], 74.8%; in experiment [7], 75.8%.
As for `CC(=O)O[C@H]1CC[C@@]2(C)C(=CC[C@@H]3[C@@H]2CC[C@]2(C)C(c4nn(C)cc4C=O)=CC[C@@H]32)C1`, the inhibition of growth at 10 µM in experiment [1] was 30.9%; in experiment [2], under 20%; in experiment [4], under 20%; in experiment [8], under 20%. Further, the inhibition of growth at 30 µM is 61.9% in experiment [3], 26.2% in experiment [5], 65.2% in experiment [6] and 55.6% in experiment [7].
As for `CC(=O)O[C@H]1CC[C@@]2(C)C(=CC[C@@H]3[C@@H]2CC[C@]2(C)C(c4nn(-c5ccc(Cl)cc5)cc4C=O)=CC[C@@H]32)C1`, the inhibition of growth at 10 µM in experiment [1] was 43.6%; in experiment [2] it was 32.1%; in experiment [4], under 20%; in experiment [8] it was 44.8%. Besides, the inhibition of growth at 30 µM came out at 65.2% in experiment [3], 56.2% in experiment [5], 62.8% in experiment [6] and 63.7% in experiment [7].
Take `CC(=O)O[C@H]1CC[C@@]2(C)C(=CC[C@@H]3[C@@H]2CC[C@]2(C)C(c4nn(-c5ccccc5)cc4C=O)=CC[C@@H]32)C1`: the inhibition of growth at 10 µM came out at 57.1% in experiment [1], 52.8% in experiment [2], 37.9% in experiment [4] and 31.4% in experiment [8]. Moreover, the inhibition of growth at 30 µM in experiment [3] amounted to 86.3%; in experiment [5] it was 71.5%; in experiment [6], 79.9%; in experiment [7], 76.9%.
Turning to `CC(=O)O[C@H]1CC[C@@]2(C)C(=CC[C@@H]3[C@@H]2CC[C@]2(C)C(c4nn(C)cc4C#N)=CC[C@@H]32)C1`, the inhibition of growth at 10 µM is 41.8% in experiment [1], 30.8% in experiment [2], 30.5% in experiment [4] and 21.7% in experiment [8]. Also, the inhibition of growth at 30 µM in experiment [3] came out at 50.3%; in experiment [5] it was 34.9%; in experiment [6] it was 60.4%; in experiment [7] it was 53.1%.
Turning to `Cc1ccc(-n2cc(CO)c(C3=CC[C@H]4[C@@H]5CC=C6C[C@@H](O)CC[C@]6(C)[C@H]5CC[C@]34C)n2)cc1`, the inhibition of growth at 10 µM in experiment [1] was 64.8%; in experiment [2], 73.5%; in experiment [4], 72.4%; in experiment [8], 68.7%. Also, the inhibition of growth at 30 µM was 83.3% in experiment [3], 96.6% in experiment [5], 90.7% in experiment [6] and 89.4% in experiment [7].
As to `Cn1cc(CO)c(C2=CC[C@H]3[C@@H]4CC=C5C[C@@H](O)CC[C@]5(C)[C@H]4CC[C@]23C)n1`, the inhibition of growth at 10 µM was under 20% in experiment [1], 32.5% in experiment [2], under 20% in experiment [4] and 37.4% in experiment [8]. Moreover, the inhibition of growth at 30 µM in experiment [3] is 33.8%; in experiment [5], 43.6%; in experiment [6], 56.4%; in experiment [7], 47.1%.
Turning to `CC(=O)O[C@H]1CC[C@@]2(C)C(=CC[C@@H]3[C@@H]2CC[C@]2(C)C(c4nn(C(C)=O)cc4C#N)=CC[C@@H]32)C1`, the inhibition of growth at 10 µM in experiment [1], in experiment [2], in experiment [4] and in experiment [8] was under 20% throughout. The inhibition of growth at 30 µM in experiment [3] amounted to 70%; in experiment [5], 61.3%; in experiment [6], 63.9%; in experiment [7] it was 64.6%.
